Results as given in patent US12023335B2, “Method for treating pancreatic cancer” (PTC THERAPEUTICS, INC., priority 2018, dated 2024).

Tested on: J1002VEH and J1002TAM cells
Assay: Viability and dose response of J1002VEH and J1002TAM cells (AlamarBlue)
Format: cell-based, mouse
Method: For proliferation curves, cells were plated in 96-well plates (Corning, 3603) and allowed to seed overnight. Replicate plates were plated for each time point since viability measurements were an endpoint procedure. The following day, cells were treated with Compound at indicated concentrations and treated with DMSO at the highest used concentration (always below 0.003%). Cells were treated for 96 hours, and viability was determined every 24 hours using AlamarBlue reagent (BioRad, BUF012B). Briefly, 10 μL of AlamarBlue was added to each well (100 μL), mixed briefly, and allowed to incubate at 37° C. and 5% CO2 for 4 hours. Following incubation, fluorescence was measured on a Promega multimode microplate reader. For analysis, background levels were subtracted from raw results, which were then normalized to be represented as a fold change compared to DMSO-treated cells on Day 0. All assays were carried out in at least triplicate with 4-8 technical replicates per treatment group, per experiment. (FIG. 1a and FIG. 10b)
For dose response curves, cells were plated in 96-well plates (Corning, 3603) and allowed to seed overnight. The following day, cells were treated with Compound 1. […] Cells were treated for 72 hours and then viability was determined using AlamarBlue reagent (BioRad, BUF012B). […] Following incubation, fluorescence was measured on a Promega multimode microplate reader. […]

For `Cc1nc2ccc(F)cc2n1-c1nc(N)c(F)c(Nc2ccc(C(F)(F)F)cc2)n1` [Compound 1, 5-fluoro-2-(6-fluoro-2-methyl-1H-benzo[d]imidazol-1-yl)-N4-[4-(trifluoromethyl)phenyl]pyrimidine-4,6-diamine], the “relative viability of J1002VEH and J1002TAM cells” value (0.1 μM or 1.0 μM over 96 hours (FIG. 10b)) was “dose and time-dependent decrease in viability of cells dependent on BMI-1 protein expression” and the “dose response in J1002VEH and J1002TAM cells” value (72 hours (FIG. 10c)) was “sub-M activity toward reduction in BMI-1 protein expression”.
